This is an account of results in US11292791B2 (priority 2017, dated 2022).

The target in the experiment is BRD4 (Homo sapiens (Human), UniProt O60885). As to conditions: read-out: BRD4 IC50 (μM gmean).
Regarding `COC(=O)N1c2ccc3c(nc(C[C@@H](C)c4ccccc4)n3C)c2CC[C@@H]1C` [Example 1, methyl (S)-3,7-dimethyl-2-((R)-2-phenylpropyl)-3,7,8,9-tetrahydro-6H-imidazo[4,5-f]quinoline-6-carboxylate], the IC50 (commonly the concentration that gives 50% inhibition) was 1 to 1000 µM.
Regarding `COC(=O)N1c2ccc3c(nc(C[C@H](C)c4ccccc4)n3C)c2CC[C@@H]1C` [Example 2, methyl (S)-3,7-dimethyl-2-((S)-2-phenylpropyl)-3,7,8,9-tetrahydro-6H-imidazo[4,5-f]quinoline-6-carboxylate], the IC50 was in the range of 1 to 1000 µM.
Next, `COC(=O)N1c2ccc3[nH]c(CCc4ccccc4)nc3c2CC[C@@H]1C` [Example 7, methyl (S)-7-methyl-2-phenethyl-3,7,8,9-tetrahydro-6H-imidazo[4,5-f]quinoline-6-carboxylate]: 1 to 1000 µM; `COC(=O)N1c2ccc3[nH]c(Cc4ccccc4)nc3c2CC[C@@H]1C` [Example 9]: 1 to 1000 µM.
Next, `COC(=O)N1c2ccc3c(nc(CCc4ccccc4)n3C)c2CC[C@@H]1C` [Example 10]: 1 to 1000 µM; `COC(=O)N1c2ccc3c(nc(CCn4cccn4)n3C)c2CC[C@@H]1C` [Example 11]: 1 to 1000 µM.
To `COC(=O)N1c2ccc3[nH]c(CCc4ccccn4)nc3c2CC[C@@H]1C` [Example 12] belongs 1 to 1000 µM.
Take `COC(=O)N1c2ccc3c(nc(CCc4cccnc4)n3C)c2CC[C@@H]1C` [Example 13]: the IC50 lay in the range of 1 to 1000 µM.
Next, `COC(=O)N1c2ccc3c(nc(CCc4ccncc4)n3C)c2CC[C@@H]1C` [Example 14]: 1 to 1000 µM.
With `COC(=O)N1c2ccc3c(nc(CCn4ccccc4=O)n3C)c2CC[C@@H]1C` [Example 15], the IC50 is 1 to 1000 µM.
`COC(=O)N1c2ccc3c(nc(Cc4ccccc4)n3[C@H]3C[C@@H](C(=O)O)C3)c2CC[C@@H]1C` [Example 20]: the IC50 fell in the range of 1 to 1000 µM.
With `COC(=O)N1c2ccc3c(nc(Cc4ccccc4)n3[C@H]3C[C@H](C(=O)O)C3)c2CC[C@@H]1C` [Example 21], the IC50 lay in the range of 1 to 1000 µM.
Regarding `COC(=O)N1c2ccc3c(nc(Cc4ccccc4)n3C34CCC(C(=O)O)(CC3)C4)c2CC[C@@H]1C` [Example 24], the IC50 is 1 to 1000 µM.
To `COC(=O)N1c2ccc3c(nc(Cc4ccccc4)n3[C@H]3CC[C@](C)(C(=O)O)CC3)c2CC[C@@H]1C` [Example 25] belongs 1 to 1000 µM.
To `COC(=O)N1c2ccc3c(nc(Cc4ccccc4)n3[C@H]3CC[C@@](C)(C(=O)O)CC3)c2CC[C@@H]1C` [Example 26] belongs 1 to 1000 µM.
Take `COC(=O)N1c2ccc3c(nc(Cc4ccc(OC)cc4)n3[C@H]3CC[C@H](C(=O)O)CC3)c2CC[C@@H]1C` [Example 27]: the half-inhibitory concentration (IC50) was in the range of 1 to 1000 µM.
To `COC(=O)N1c2ccc3c(nc(Cc4ccc(OC)c(F)c4)n3[C@H]3CC[C@H](C(=O)O)CC3)c2CC[C@@H]1C` [Example 28] belongs 1 to 1000 µM; to `COC(=O)N1c2ccc3c(nc(CCn4cccn4)n3[C@H]3CC[C@H](C(=O)O)CC3)c2CC[C@@H]1C` [Example 31], 1 to 1000 µM; to `COC(=O)N1c2ccc3c(nc(CCn4nccn4)n3[C@H]3CC[C@H](C(=O)O)CC3)c2CC[C@@H]1C` [Example 32], 1 to 1000 µM.
Next, `COC(=O)N1c2ccc3c(nc(CCc4cnc(C)o4)n3[C@H]3CC[C@H](C(=O)O)CC3)c2CC[C@@H]1C` [Example 33]: 1 to 1000 µM.
Regarding `COC(=O)N1c2ccc3c(nc(CCc4cnn(C)c4)n3[C@H]3CC[C@H](C(=O)O)CC3)c2CC[C@@H]1C` [Example 34], the IC50 was 1 to 1000 µM.
In the case of `COC(=O)N1c2ccc3c(nc(CCc4ncc(C)o4)n3[C@H]3CC[C@H](C(=O)O)CC3)c2CC[C@@H]1C` [Example 35], the IC50 lay within 1 to 1000 µM.
Turning to `COC(=O)N1c2ccc3c(nc(CCc4nc(C)co4)n3[C@H]3CC[C@H](C(=O)O)CC3)c2CC[C@@H]1C` [Example 36], the half-inhibitory concentration (IC50) lay within 1 to 1000 µM.
Next, `COC(=O)N1c2ccc3c(nc(CCc4cc(C)no4)n3[C@H]3CC[C@H](C(=O)O)CC3)c2CC[C@@H]1C` [Example 37]: 1 to 1000 µM.
Next, `COC(=O)N1c2ccc3c(nc(CCc4nnc(C)o4)n3[C@H]3CC[C@H](C(=O)O)CC3)c2CC[C@@H]1C` [Example 38]: 1 to 1000 µM; `COC(=O)N1c2ccc3c(nc(CCn4ccc(C)n4)n3[C@H]3CC[C@H](C(=O)O)CC3)c2CC[C@@H]1C` [Example 39]: 1 to 1000 µM; `COC(=O)N1c2ccc3c(nc(CCn4cc(Cl)cn4)n3[C@H]3CC[C@H](C(=O)O)CC3)c2CC[C@@H]1C` [Example 41]: 1 to 1000 µM.
Next, `COC(=O)N1c2ccc3c(nc(CCc4nc(C)no4)n3[C@H]3CC[C@H](C(=O)O)CC3)c2CC[C@@H]1C` [Example 42]: 1 to 1000 µM.
As to `COC(=O)N1c2ccc3c(nc(Cc4ccccc4)n3-c3ccc(C(=O)O)cc3)c2CC[C@@H]1C` [Example 43], the IC50 was in the range of 1 to 1000 µM.
Next, `COC(=O)N1c2ccc3c(nc(Cc4ccccc4)n3-c3cccc(C(=O)O)c3)c2CC[C@@H]1C` [Example 44]: 1 to 1000 µM; `COC(=O)N1c2ccc3c(nc(CCc4ccn(C)n4)n3[C@H]3CC[C@H](C(=O)O)CC3)c2CC[C@@H]1C` [Example 45]: 1 to 1000 µM; `COC(=O)N1c2ccc3c(nc([C@H](CO)c4ccccc4)n3C3CCOCC3)c2CC[C@@H]1C` [Example 46, methyl (7S)-2-[(1R)-2-hydroxy-1-phenylethyl]-7-methyl-3-(oxan-4-yl)-3H,6H,7H,8H,9H-imidazo[4,5-f]quinoline-6-carboxylate]: 1 to 1000 µM.
With `COC(=O)N1c2ccc3c(nc([C@@H](CO)c4ccccc4)n3C3CCOCC3)c2CC[C@@H]1C` [Example 47, methyl (7S)-2-[(1S)-2-hydroxy-1-phenylethyl]-7-methyl-3-(oxan-4-yl)-3H,6H,7H,8H,9H-imidazo[4,5-f]quinoline-6-carboxylate], the IC50 lay in the range of 1 to 1000 µM.
Next, `COC(=O)N1c2ccc3c(nc([C@H](C)c4ccccc4)n3[C@H]3CC[C@H](C(=O)O)CC3)c2CC[C@@H]1C` [Example 56, trans-4-[(7S)-6-(methoxycarbonyl)-7-methyl-2-[(1R)-1-phenylethyl]-3H,6H,7H,8H,9H-imidazo[4,5-f]quinolin-3-yl]cyclohexane-1-carboxylic Acid]: 1 to 1000 µM; `COC(=O)N1c2ccc3c(nc([C@@H](C)c4ccccc4)n3[C@H]3CC[C@H](C(=O)O)CC3)c2CC[C@@H]1C` [Example 57, trans-4-[(7S)-6-(methoxycarbonyl)-7-methyl-2-[(1S)-1-phenylethyl]-3H,6H,7H,8H,9H-imidazo[4,5-f]quinolin-3-yl]cyclohexane-1-carboxylic Acid]: 1 to 1000 µM.
Next, `COC(=O)N1c2ccc3c(nc([C@H](C)c4ccccc4)n3C3CCNCC3)c2CC[C@@H]1C` [Example 58, methyl (S)-7-methyl-2-((R)-1-phenylethyl)-3-(piperidin-4-yl)-3,7,8,9-tetrahydro-6H-imidazo[4,5-f]quinoline-6-carboxylate]: 1 to 1000 µM; `COC(=O)N1c2ccc3c(nc([C@@H](C)c4ccccc4)n3C3CCNCC3)c2CC[C@@H]1C` [Example 59, methyl (S)-7-methyl-2-((S)-1-phenylethyl)-3-(piperidin-4-yl)-3,7,8,9-tetrahydro-6H-imidazo[4,5-f]quinoline-6-carboxylate]: 1 to 1000 µM.
With `COC(=O)N1c2ccc3c(nc(Cc4ccccc4)n3[C@@H]3CC[C@@H](CO)OC3)c2CC[C@@H]1C` [Example 66, methyl (S)-2-benzyl-3-((3R,6S)-6-(hydroxymethyl)tetrahydro-2H-pyran-3-yl)-7-methyl-3,7,8,9-tetrahydro-6H-imidazo[4,5-f]quinoline-6-carboxylate], the IC50 fell in the range of 1 to 1000 µM.
To `COC(=O)N1c2ccc3c(nc(Cn4ccccc4=O)n3[C@H]3CC[C@H](O)CC3)c2CC[C@@H]1C` [Example 71] belongs 1 to 1000 µM.
In the case of `COC(=O)N1c2ccc3c(nc(Cc4ccccc4)n3[C@@H]3CC[C@@H](C(=O)O)OC3)c2CC[C@@H]1C` [Example 72, (2S,5R)-5-((S)-2-benzyl-6-(methoxycarbonyl)-7-methyl-6,7,8,9-tetrahydro-3H-imidazo[4,5-f]quinolin-3-yl)tetrahydro-2H-pyran-2-carboxylic Acid], the IC50 fell in the range of 1 to 1000 µM.
Next, `COC(=O)N1c2ccc3c(nc(CCc4ccccc4)n3C3CC4(CNC4)C3)c2CC[C@@H]1C` [Example 81]: 1 to 1000 µM.
Next, `COC(=O)N1c2ccc3c(nc(Cc4ccccc4)n3C3CC4CCC(C3)N4)c2CC[C@@H]1C` (stereo partly drawn) [Example 83]: 1 to 1000 µM; `COC(=O)N1c2ccc3c(nc(Cc4ccccc4)n3C[C@@H]3CCCNC3)c2CC[C@@H]1C` [Example 86]: 1 to 1000 µM.
On to `COC(=O)N1c2ccc3c(nc(Cc4ccccc4)n3C[C@H]3CCCNC3)c2CC[C@@H]1C` [Example 87], for which the IC50 lay within 1 to 1000 µM.
For the compound `COC(=O)N1c2ccc3c(nc(Cc4ccccc4)n3C3CCNCC3)c2CC[C@@H]1C` [Example 90], the IC50 was in the range of 1 to 1000 µM.
Next, `COC(=O)N1c2ccc3c(nc(Cc4ccccc4)n3CC3CCNCC3)c2CC[C@@H]1C` [Example 93]: 1 to 1000 µM.
To `COC(=O)N1c2ccc3c(nc(Cc4ccccc4)n3C3CC4(CNC4)C3)c2CC[C@@H]1C` [Example 94] belongs 1 to 1000 µM; to `COC(=O)N1c2ccc3c(nc(Cc4ccccc4)n3C3CC4(CCNCC4)C3)c2CC[C@@H]1C` [Example 95], 1 to 1000 µM.
Next, `COC(=O)N1c2ccc3c(nc(Cc4ccccc4)n3C3CCC4(CC3)CNC4)c2CC[C@@H]1C` [Example 96]: 1 to 1000 µM; `COC(=O)N1c2ccc3c(nc(Cc4ccccc4)n3CC3CNC3)c2CC[C@@H]1C` [Example 97]: 1 to 1000 µM.
As for `COC(=O)N1c2ccc3c(nc(Cc4ccccc4)n3C3CC4CNCC4C3)c2CC[C@@H]1C` (stereo partly drawn) [Example 98], the IC50 fell in the range of 1 to 1000 µM.
Next, `COC(=O)N1c2ccc3c(nc(Cc4cccc(OC(C)C)c4)n3C3CC4(CNC4)C3)c2CC[C@@H]1C` [Example 99]: 1 to 1000 µM; `COC(=O)N1c2ccc3c(nc(CCc4cccc(OC)c4)n3C3CC4(CNC4)C3)c2CC[C@@H]1C` [Example 100]: 1 to 1000 µM; `COC(=O)N1c2ccc3c(nc(CCc4cccc(OC(C)C)c4)n3C3CC4(CNC4)C3)c2CC[C@@H]1C` [Example 101]: 1 to 1000 µM.
